Measured values as given in the NIST ThermoML archive (doi:10.1007/s10765-013-1526-8).

Experiments:
[1] = xn = mol fraction of the nth substance listed; conditions: 101 kPa, Liquid; for speed of sound: Sing-around technique in a fixed-path interferometer
[2] = refractive index (Na D-line) (dimensionless); xn = mol fraction of the nth substance listed; conditions: 101 kPa, Liquid

CCCCC(CC)CO (stereo not given) [2-ethyl-1-hexanol] + Clc1ccccc1
Conditions | mass density, [1] [kg/m3] | refractive index, [2] | speed of sound, [1] [m/s] | viscosity, [1] [mPa·s]
298.15 K, x2 = 0 | 829.07 | 1.4287 | 1319 | 8.418
298.15 K, x2 = 0.0779 | 838.66 | 1.435 | 1313 | 6.736
298.15 K, x2 = 0.1381 | 847.37 | 1.44 | 1308 | 5.641
298.15 K, x2 = 0.1974 | 857.02 | 1.4453 | 1304 | 4.684
298.15 K, x2 = 0.2716 | 870.89 | 1.4523 | 1298 | 3.718
298.15 K, x2 = 0.3399 | 885.34 | 1.4591 | 1292 | 2.996
298.15 K, x2 = 0.4119 | 902.38 | 1.4666 | 1287 | 2.38
298.15 K, x2 = 0.4766 | 919.17 | 1.4734 | 1282 | 1.969
298.15 K, x2 = 0.5461 | 938.46 | 1.4807 | 1277 | 1.628
298.15 K, x2 = 0.6124 | 958.72 | 1.4879 | 1272 | 1.381
298.15 K, x2 = 0.6892 | 983.65 | 1.4961 | 1268 | 1.197
298.15 K, x2 = 0.758 | 1007.82 | 1.5034 | 1265 | 1.06
298.15 K, x2 = 0.8189 | 1029.88 | 1.5095 | 1264 | 0.969
298.15 K, x2 = 0.8888 | 1056.63 | 1.5161 | 1263 | 0.893
298.15 K, x2 = 0.9533 | 1081.91 | 1.521 | 1265 | 0.821
303.15 K, x2 = 0 | 825.39 | 1.4266 | 1301 | 7.144
303.15 K, x2 = 0.0779 | 834.41 | 1.4332 | 1295 | 5.817
303.15 K, x2 = 0.1381 | 842.5 | 1.4382 | 1291 | 4.906
303.15 K, x2 = 0.1974 | 852.03 | 1.4437 | 1286 | 4.121
303.15 K, x2 = 0.2716 | 865.78 | 1.4509 | 1280 | 3.268
303.15 K, x2 = 0.3399 | 880.07 | 1.4577 | 1275 | 2.671
303.15 K, x2 = 0.4119 | 897.12 | 1.4651 | 1269 | 2.147
303.15 K, x2 = 0.4766 | 914.02 | 1.472 | 1264 | 1.785
303.15 K, x2 = 0.5461 | 933.51 | 1.4793 | 1259 | 1.455
303.15 K, x2 = 0.6124 | 953.51 | 1.4863 | 1254 | 1.253
303.15 K, x2 = 0.6892 | 978.28 | 1.4943 | 1250 | 1.057
303.15 K, x2 = 0.758 | 1002.29 | 1.5015 | 1247 | 0.968
303.15 K, x2 = 0.8189 | 1024.42 | 1.5076 | 1246 | 0.881
303.15 K, x2 = 0.8888 | 1050.99 | 1.514 | 1245 | 0.81
303.15 K, x2 = 0.9533 | 1076.27 | 1.5186 | 1247 | 0.764
308.15 K, x2 = 0 | 821.68 | 1.4245 | 1283 | 6.09
308.15 K, x2 = 0.0779 | 829.62 | 1.4308 | 1277 | 4.854
308.15 K, x2 = 0.1381 | 837.63 | 1.4362 | 1273 | 4.032
308.15 K, x2 = 0.1974 | 846.84 | 1.4416 | 1268 | 3.363
308.15 K, x2 = 0.2716 | 860.76 | 1.4491 | 1263 | 2.689
308.15 K, x2 = 0.3399 | 875.1 | 1.4561 | 1257 | 2.171
308.15 K, x2 = 0.4119 | 892.15 | 1.4637 | 1252 | 1.749
308.15 K, x2 = 0.4766 | 908.93 | 1.4706 | 1247 | 1.45
308.15 K, x2 = 0.5461 | 928.26 | 1.4778 | 1242 | 1.221
308.15 K, x2 = 0.6124 | 948.46 | 1.4849 | 1237 | 1.068
308.15 K, x2 = 0.6892 | 973.49 | 1.4929 | 1233 | 0.96
308.15 K, x2 = 0.758 | 996.87 | 1.4998 | 1230 | 0.879
308.15 K, x2 = 0.8189 | 1018.95 | 1.5056 | 1228 | 0.824
308.15 K, x2 = 0.8888 | 1045.23 | 1.5116 | 1228 | 0.774
308.15 K, x2 = 0.9533 | 1070.96 | 1.5161 | 1229 | 0.719
